Data taken from patent publication US20060228752A1, “Genetic polymorphisms in the preprotachykinin gene” (priority 2002, published 2006).

Columns and labels:
Type in all cases: in vivo, human
[1] = tested on: apomorphine-induced vomiting and retching; assay: Emesis test (apomorphine challenge), Single Ascending Dose study (SAD)
Protocol: (§1) The described emesis test was performed in two studies. A Single Ascending Dose study (SAD) and a Multiple Ascending Dose study (MAD). In the SAD the emesis test was performed 6 and/or 24 hrs after intake of 2-(3,5-bis-trifluoromethyl-phenyl)-N-methyl-N-(6-morpholin-4-yl-4-o-tolyl-pyridin-3-yl)-isobutyramide. In the MAD the emesis test was performed after 14 once daily doses, 6 or 24 hrs after the last dose.
In the SAD on study day 1 doses of 5, 10, 20, 40, 80, 160, 230 and 400 mg 2-(3,5-bis-trifluoromethyl-phenyl)-N-methyl-N-(6-morpholin-4-yl-4-o-tolyl-pyridin-3-yl)-isobutyramide were administered to the subjects orally as a drinking emulsion. At either 6 or 24 hours after the administration of the drug the subjects received a subcutaneous injection of 50 μg/kg of apomorphine in the lower part of the abdomen. The time of apomorphine administration was recorded. The subjects were brought into an upright sitting position immediately after the injection. They remained in this position until vomiting occurred or for at least 1 hour after the apomorphine injection. Vomiting is defined as regurgitation of approximately 25 ml or more of gastric contents. A retch is defined as a regurgitation producing less or no gastric content.
Nausea and/or vomiting was expected to occur on average within 10 minutes after the injection. […] The number of vomits and retches were recorded. […]

[2] = tested on: apomorphine-induced vomiting and retching; assay: Emesis test response by NKNA position 41172 genotype (SAD and MAD participants); conditions: plasma concentration >20 ng/ml; responder = ≦3 retches and vomits
Protocol: FIG. 4: 2×2 Contingency table for 29 position 41172 genotype test results with concentration before emesis test >20 ng/ml 2-(3,5-bis-trifluoromethyl-phenyl)-N-methyl-N-(6-morpholin-4-yl-4-o-tolyl-pyridin-3-yl)-isobutyramide. Effect=yes: number of vomits+retches≦3. Fisher's Exact Test (two-sided): p=0.033. The genotypes of the subjects were classified according to the following categories: 0-2 are allele 2 (nucleotide G) homozygotes (two copies of allele 2, no copies of allele 1); not 0-2 include allelel (nucleotide A) homozygotes 2-0 (two copies of allele 1, no copies of allele 2) and heterozygotes 1-1 (one copy of allele 1 and one copy of allele 2).
Three genetic markers were selected based on the results from polymorphism discovery in the NKNA gene. Samples were genotyped for these single nucleotide polymorphisms by a kinetic PCR method described by Germer et al., Genome Res. (2000), 10, 258-266 with the modification of using single sample for each reaction instead of pooling samples. This method allows discrimination of single nucleotide polymorphisms without the use of fluorescent probes.
All participants of the SAD and MAD were tested for the single nucleotide polymorphism at position 41172 of the NKNA gene as defined by position in FIG. 2.

[3] = tested on: apomorphine-induced vomiting and retching; assay: Emesis test (apomorphine challenge), Multiple Ascending Dose study (MAD); conditions: 14 once daily doses, test on day 14, 6 or 24 hrs after last dose
Protocol: as §1, with “dose. Subjects were dosed for 14 days with 2-(3,5-bis-trifluoromethyl-phenyl)-N-methyl-N-(6-morpholin-4-yl-4-o-tolyl-pyridin-3-yl)-isobutyramide. On day 14 the test was carried out as described in the SAD.” for “dose.”

## Cc1ccccc1-c1cc(N2CCOCC2)ncc1N(C)C(=O)C(C)(C)c1cc(C(F)(F)F)cc(C(F)(F)F)c1 [2-(3,5-bis-trifluoromethyl-phenyl)-N-methyl-N-(6-morpholin-4-yl-4-o-tolyl-pyridin-3-yl)-isobutyramide]
[1]; apomorphine 50 μg/kg s.c. 6 or 24 hrs after oral drug
  average number of retches and vomits at the plateau reached with the blockade: 3
[1]; oral drinking emulsion 5-400 mg, apomorphine 50 μg/kg s.c. 6 or 24 hrs after drug, efficacy = plateau of 3 retches and vomits
  plasma concentration at which efficacious levels are reached (minimal concentration to achieve efficacy): 20 ng/mL
[2]
  response to treatment of subjects with G at position 41172 of the NKNA gene versus subjects without it or heterozygous: responding with a higher efficacy
[3]
  emesis test result in MAD: consistent with the SAD
